The source of these data is PMC11754080 (iScience, 2024).

What all share (test): microscale thermophoresis
Holding throughout (type): binding
In general terms: In MST a laser heats a spot of the sample, and binding alters the fluorescence response.

For test [1], the target named is T1, septin2 (Homo sapiens, UniProt Q15019).
T1 sequence (Q15019 1-361): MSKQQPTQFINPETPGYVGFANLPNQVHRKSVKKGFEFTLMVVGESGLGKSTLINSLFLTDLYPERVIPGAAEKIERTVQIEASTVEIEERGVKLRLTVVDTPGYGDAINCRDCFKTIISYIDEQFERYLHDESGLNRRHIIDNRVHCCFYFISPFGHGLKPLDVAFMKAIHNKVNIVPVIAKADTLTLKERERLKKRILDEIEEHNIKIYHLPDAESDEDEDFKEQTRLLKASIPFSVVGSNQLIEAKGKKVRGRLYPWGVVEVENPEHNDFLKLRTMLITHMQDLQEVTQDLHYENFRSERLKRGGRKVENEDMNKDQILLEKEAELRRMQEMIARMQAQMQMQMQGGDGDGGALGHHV

For test [2], the target named is T2, septin7 (Homo sapiens, UniProt Q16181).
T2 sequence (Q16181 2-437): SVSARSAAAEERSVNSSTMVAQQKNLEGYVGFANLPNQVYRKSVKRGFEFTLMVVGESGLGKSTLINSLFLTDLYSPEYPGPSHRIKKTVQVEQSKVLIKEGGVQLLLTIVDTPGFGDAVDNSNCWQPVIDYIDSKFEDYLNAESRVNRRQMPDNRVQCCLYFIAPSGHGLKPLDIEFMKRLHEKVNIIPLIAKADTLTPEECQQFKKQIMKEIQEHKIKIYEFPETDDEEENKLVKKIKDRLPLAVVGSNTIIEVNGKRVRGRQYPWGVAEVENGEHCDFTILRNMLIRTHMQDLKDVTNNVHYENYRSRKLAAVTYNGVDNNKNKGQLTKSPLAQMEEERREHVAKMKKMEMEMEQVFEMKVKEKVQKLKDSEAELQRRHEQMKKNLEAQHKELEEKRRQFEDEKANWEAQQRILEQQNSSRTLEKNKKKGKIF

Test [3] deals with T3, septin6 (Homo sapiens, UniProt Q14141).
T3 sequence (Q14141 2-434): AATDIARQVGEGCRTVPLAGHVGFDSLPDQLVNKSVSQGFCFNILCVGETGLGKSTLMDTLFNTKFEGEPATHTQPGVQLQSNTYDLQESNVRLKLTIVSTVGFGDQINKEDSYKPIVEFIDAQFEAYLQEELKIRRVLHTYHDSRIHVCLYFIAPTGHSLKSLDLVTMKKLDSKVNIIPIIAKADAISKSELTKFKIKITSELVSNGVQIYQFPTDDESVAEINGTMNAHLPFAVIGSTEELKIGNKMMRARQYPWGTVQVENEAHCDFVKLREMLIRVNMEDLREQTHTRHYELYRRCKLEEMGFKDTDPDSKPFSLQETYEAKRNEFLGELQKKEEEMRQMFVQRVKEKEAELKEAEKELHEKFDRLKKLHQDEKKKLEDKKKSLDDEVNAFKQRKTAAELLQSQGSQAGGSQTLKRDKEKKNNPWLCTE

A word on the Kd: it is a measure of binding affinity in units of concentration. Low readings indicate a tighter complex, high ones a looser complex.

Take `OC1(c2ccc(Cl)c(C(F)(F)F)c2)CCN(CCCC(c2ccc(F)cc2)c2ccc(F)cc2)CC1` [PFD, penfluridol]: the Kd in test [1] stood at 54.8 µM; in test [2], 0.98 µM; in test [3], 43.1 µM.
